Assay results from patent publication US20230391786A1, “cGAS INHIBITORS” (Eli Lilly and Company, priority 2022, published 2023).
Read-outs that look alike come from different tables or passages of the source.

Key:
[1] = system: cGAS activity in THP1 cells (IFNb as marker); experiment: Cellular assay to measure cGAS activity (IFNb production in PMA-differentiated THP1 cells stimulated by RDG-Adenovirus-GFP); type: cell-based, human; settings: PMA differentiated, RDG-Adenovirus-GFP 1000 MOI, IFNb AlphaLISA, overnight incubation, read-out: IC50 (μM), Cellular assay for Compounds 95-348
Protocol: Cellular assay to measure cGAS activity: Use THP1 cell line from ATCC to determine inhibition of cGAS activity by test compounds in human cells. Plate cells on 96-well plates at 0.2×10^6/well and differentiate with phorbol myristate acetate (PMA) at 37° C./5% CO2. After 24 hours, replace PMA containing media with media lacking PMA and further incubate overnight. Stimulate cells were then by RDG-Adenovirus-GFP (Vector Biolabs #1768) at 1000 MOI for 4 hours prior to the addition of test compounds. After overnight incubation, transfer 10 μL of the media from each well to a new plate for IFNb analysis as a marker for cGAS activity. Measure quantification of IFNb with an IFNb AlphaLISA Detection kit (Perkin Elmer AL3133F) by mixing the acceptor beads with the cell supernatant followed by the addition of the biotinylated antibody and donor beads. Measure the relative fluorescence signal produced from the interaction of the donor and acceptor beads by a PHERAStar AlphaLISA protocol and evaluate the inhibitory effect of a compound by plotting specific inhibition of IFNb production against log concentration of the test compound. Calculate IC50 values using a 4-parameter non-linear logistic equation (y=(S0+((SInf−S0)/(1+((qAC50/x)^nHill))))).

recombinant human cGAS = recombinant human cGAS (Homo sapiens (Human), UniProt Q8N884); experiment: In vitro inhibition assay of cGAS activity (cGAMP production, RapidFire mass spectrometry); type: biochemical; settings: 10 nM recombinant human cGAS, 60 nM 75-bp dsDNA, ATP, GTP, room temperature 3 hours, read-out: IC50 (μM), In vitro inhibition assay for Compounds 95-348
recombinant human cGAS, sequence (Q8N884 whole entry): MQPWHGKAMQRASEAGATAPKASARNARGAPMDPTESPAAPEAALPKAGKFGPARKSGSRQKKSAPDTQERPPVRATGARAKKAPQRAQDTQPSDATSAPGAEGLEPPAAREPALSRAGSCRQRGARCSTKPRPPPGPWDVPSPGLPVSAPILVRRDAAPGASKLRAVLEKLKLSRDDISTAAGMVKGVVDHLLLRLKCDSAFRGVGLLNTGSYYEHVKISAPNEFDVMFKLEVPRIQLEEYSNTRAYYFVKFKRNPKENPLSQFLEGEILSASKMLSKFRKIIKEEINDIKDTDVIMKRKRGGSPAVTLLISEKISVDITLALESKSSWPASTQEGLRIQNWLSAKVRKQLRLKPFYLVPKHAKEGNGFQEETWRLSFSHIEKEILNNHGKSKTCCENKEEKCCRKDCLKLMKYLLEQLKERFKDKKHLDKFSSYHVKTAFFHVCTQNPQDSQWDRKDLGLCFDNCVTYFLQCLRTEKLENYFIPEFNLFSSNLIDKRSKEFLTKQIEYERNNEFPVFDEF
Method in brief: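 Full-length His6-tagged human cGAS (10 nM, E. coli-expressed) was incubated 3 h at room temperature with 60 nM 75-bp dsDNA, ATP, 50 μM GTP and compound at pH 7.5 with 5 mM MgCl2. cGAMP formation was measured by RapidFire mass spectrometry, and IC50 was taken from a 4-parameter logistic fit.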

[2] = Homo sapiens, THP-1, THP1 cells

SMILES | IC50 [1, 2] [µM] | IC50 (recombinant human cGAS) [µM] | IC50 ([1]; THP1 cells) [µM]
Clc1ccc2c(-c3cn[nH]c3)c(-c3nnco3)[nH]c2c1Cl [Example 156, 2-[6,7-Dichloro-3-(1H-pyrazol-4-yl)-1H-indol-2-yl]-1,3,4-oxadiazole] | 0.464 | 0.0405 | –
O=C(Nc1cc(Cl)c(Cl)c2c1c(-c1cn[nH]c1)c1n2CCN(C(=O)CO)C1)C(F)F [Example 272, N-[6,7-Dichloro-2-(2-hydroxyacetyl)-10-(1H-pyrazol-4-yl)-3,4-dihydro-1H-pyrazino[1,2-a]indol-9-yl]-2,2-difluoro-acetamide] | 0.412 | 0.0202 | –
CC(=O)Nc1cc(Cl)c(Cl)c2[nH]c(CO)c(-c3cn[nH]c3)c12 [Example 130, N-(6,7-Dichloro-2-(hydroxymethyl)-3-(1H-pyrazol-4-yl)-1H-indol-4-yl)acetamide] | 0.815 | 0.0711 | –
N#CCOc1cc(Cl)c(Cl)c2c1c(-c1cn[nH]c1)c1n2CCN(c2ncccn2)C1 [Example 204, 2-[[6,7-Dichloro-10-(1H-pyrazol-4-yl)-2-pyrimidin-2-yl-3,4-dihydro-1H-pyrazino[1,2-a]indol-9-yl]oxy]acetonitrile] | 0.854 | 0.0201 | –
CN1CCn2c(c(-c3cn[nH]c3)c3c(OCCCO)cc(Cl)c(Cl)c32)C1=O [Example 339, 6,7-Dichloro-9-(3-hydroxypropoxy)-2-methyl-10-(1H-pyrazol-4-yl)-3,4-dihydropyrazino[1,2-a]indol-1(2H)-one] | 0.426 | 0.00789 | –
CC(=O)N1CCn2c(c(-c3cn[nH]c3)c3c(OCC#N)cc(Cl)c(Cl)c32)C1 [Example 280, 2-((2-Acetyl-6,7-dichloro-10-(1H-pyrazol-4-yl)-1,2,3,4-tetrahydropyrazino[1,2-a]indol-9-yl)oxy)acetonitrile] | 0.872 | 0.0087 | –
N#CCOc1cc(Cl)c(Cl)c2c1c(-c1cn[nH]c1)c1n2CCN(C(=O)c2nccnc2C(=O)N2CCOCC2)C1 [Example 296, 2-((6,7-Dichloro-2-(3-(morpholine-4-carbonyl)pyrazine-2-carbonyl)-10-(1H-pyrazol-4-yl)-1,2,3,4-tetrahydropyrazino[1,2-a]indol-9-yl)oxy)acetonitrile] | 4.78 | 0.061 | –
O=C(Cn1cnnc1)NCc1[nH]c2c(Cl)c(Cl)ccc2c1-c1cn[nH]c1 [Example 103, N-((6,7-Dichloro-3-(1H-pyrazol-4-yl)-1H-indol-2-yl)methyl)-2-(4H-1,2,4-triazol-4-yl)acetamide] | > 10 | 0.051 | –
CC(=O)N1CCOC(CC(=O)N2CCn3c(c(-c4cn[nH]c4)c4ccc(Cl)c(Cl)c43)C2)C1 (single isomer, unassigned) [Example 265, 2-(4-acetylmorpholin-2-yl)-1-(6,7-dichloro-10-(1H-pyrazol-4-yl)-3,4-dihydropyrazino[1,2-a]indol-2(1H)-yl)ethan-1-one] | – | 0.0511 | > 10
CC(=O)N1CCn2c(c(-c3cn[nH]c3)c3c(NC(=O)C(F)(F)F)cc(Cl)c(Cl)c32)C1 [Example 256, N-[2-Acetyl-6,7-dichloro-10-(1H-pyrazol-4-yl)-3,4-dihydro-1H-pyrazino[1,2-a]indol-9-yl]-2,2,2-trifluoro-acetamide] | 4.8 | 0.0386 | –
N#CCOc1cc(Cl)c(Cl)c2[nH]c(CO)c(-c3cn[nH]c3)c12 [Example 340, 2-((6,7-Dichloro-2-(hydroxymethyl)-3-(1H-pyrazol-4-yl)-1H-indol-4-yl)oxy)acetonitrile] | 0.516 | 0.0102 | –
CC(=O)NC1CCc2c(-c3cn[nH]c3)c3c(OCC#N)cc(Cl)c(Cl)c3n2C1 (centres unmarked) [Example 102, N-[3,4-Dichloro-1-(cyanomethoxy)-10-(1H-pyrazol-4-yl)-6,7,8,9-tetrahydropyrido[1,2-a]indol-7-yl]acetamide] | 1.28 | 0.0166 | –
O=C(Cc1cnccn1)NCc1[nH]c2c(Cl)c(Cl)ccc2c1-c1cn[nH]c1 [Example 112, N-((6,7-Dichloro-3-(1H-pyrazol-4-yl)-1H-indol-2-yl)methyl)-2-(pyrazin-2-yl)acetamide] | 1.56 | 0.0361 | –
COCc1[nH]c2c(Cl)c(Cl)cc(NC(=O)C(F)F)c2c1-c1cn[nH]c1 [Example 132, N-(6,7-Dichloro-2-(methoxymethyl)-3-(1H-pyrazol-4-yl)-1H-indol-4-yl)-2,2-difluoroacetamide] | 0.317 | 0.0202 | –
CC(=O)N[C@H]1CCn2c1c(-c1cn[nH]c1)c1c(OCC#N)cc(Cl)c(Cl)c12 [Example 232, (S)—N-(5,6-Dichloro-8-(cyanomethoxy)-9-(1H-pyrazol-4-yl)-2,3-dihydro-1H-pyrrolo[1,2-a]indol-1-yl)acetamide] | 0.668 | 0.00376 | –
OCCCNc1cc(Cl)c(F)c2c1c(-c1cn[nH]c1)cn2-c1cn(CCO)nn1 [Example 173, 3-[[6-Chloro-7-fluoro-1-[1-(2-hydroxyethyl)triazol-4-yl]-3-(1H-pyrazol-4-yl)indol-4-yl]amino]propan-1-ol] | 0.466 | 0.0145 | –
CC(=O)N1CCn2c(c(-c3cn[nH]c3)c3c(NC(=O)CO)cc(Cl)c(Cl)c32)C1 [Example 146, N-(2-Acetyl-6,7-dichloro-10-(1H-pyrazol-4-yl)-1,2,3,4-tetrahydropyrazino[1,2-a]indol-9-yl)-2-hydroxyacetamide] | > 10 | 0.0918 | –
O=C(Cc1ccn[nH]1)N1CCn2c(c(-c3cn[nH]c3)c3ccc(Cl)c(Cl)c32)C1 [Example 266, 1-[6,7-Dichloro-10-(1H-pyrazol-4-yl)-3,4-dihydro-1H-pyrazino[1,2-a]indol-2-yl]-2-(1H-pyrazol-5-yl)ethanone] | 9.93 | 0.0401 | –
OCC(O)CNc1cc(Cl)c(Cl)c2[nH]cc(-c3cn[nH]c3)c12 (single isomer, unassigned) [Example 262, 3-[[6,7-Dichloro-3-(1H-pyrazol-4-yl)-1H-indol-4-yl]amino]propane-1,2-diol] | – | 0.0772 | 3.62
Clc1ccc2c(-c3cn[nH]c3)c(-c3nnc(C4CC4)o3)[nH]c2c1Cl [Example 160, 2-Cyclopropyl-5-(6,7-dichloro-3-(1H-pyrazol-4-yl)-1H-indol-2-yl)-1,3,4-oxadiazole] | 0.536 | 0.0787 | –
N#CCOc1cc(Cl)c(Cl)c2[nH]nc(-c3cn[nH]c3)c12 [Example 249, 2-[[6,7-Dichloro-3-(1H-pyrazol-4-yl)-1H-indazol-4-yl]oxy]acetonitrile] | 2.32 | 0.0306 | –
CC(=O)N1CCOC(CCN2CCn3c(c(-c4cn[nH]c4)c4c(OCC#N)cc(Cl)c(Cl)c43)C2=O)C1 (centres unmarked) [Example 151, 2-[[2-[2-(4-Acetylmorpholin-2-yl)ethyl]-6,7-dichloro-1-oxo-10-(1H-pyrazol-4-yl)-3,4-dihydropyrazino[1,2-a]indol-9-yl]oxy]acetonitrile] | > 10 | 0.0349 | –
N#CCOc1cc(Cl)c(Cl)c2c1c(-c1cn[nH]c1)cn2-c1cn(CCO)nn1 [Example 197, 22-[6,7-Dichloro-1-[1-(2-hydroxyethyl)triazol-4-yl]-3-(1H-pyrazol-4-yl)indol-4-yl]oxyacetonitrile] | 1.06 | 0.00893 | –
O=C(CO)Nc1cc(Cl)c(Cl)c2[nH]nc(-c3cn[nH]c3)c12 [Example 336, N-(6,7-Dichloro-3-(1H-pyrazol-4-yl)-1H-indazol-4-yl)-2-hydroxyacetamide] | 0.492 | 0.0385 | –
O[C@@H]1C[C@H](Oc2cc(Cl)c(Cl)c3[nH]cc(-c4cn[nH]c4)c23)[C@@H](O)C1 (single isomer, unassigned) [Example 271, 4-[[6,7-Dichloro-3-(1H-pyrazol-4-yl)-1H-indol-4-yl]oxy]cyclopentane-1,3-diol] | – | 0.184 | 6.75
O=C(Cn1ccnc1)N1CCn2c(c(-c3cn[nH]c3)c3ccc(Cl)c(Cl)c32)C1 [Example 111, 1-[6,7-Dichloro-10-(1H-pyrazol-4-yl)-3,4-dihydro-1H-pyrazino[1,2-a]indol-2-yl]-2-imidazol-1-yl-ethanone] | > 10 | 0.0468 | –
COCCOCC(=O)N1CCn2c(c(-c3cn[nH]c3)c3ccc(Cl)c(Cl)c32)C1 [Example 306, 1-(6,7-Dichloro-10-(1H-pyrazol-4-yl)-3,4-dihydropyrazino[1,2-a]indol-2(1H)-yl)-2-(2-methoxyethoxy)ethan-1-one] | > 10 | 0.0379 | –
CNC(=O)CCS(=O)(=O)NC1CCc2c(-c3cn[nH]c3)c3ccc(Cl)c(Cl)c3n2C1 (centres unmarked) [Example 118, 3-(N-(3,4-Dichloro-10-(1H-pyrazol-4-yl)-6,7,8,9-tetrahydropyrido[1,2-a]indol-7-yl)sulfamoyl)-N-methylpropanamide] | 3.61 | 0.0165 | –
